The test system of the assay is neuroleptic-induced catatonia. Briefly: Inhibition of neuroleptic-induced catatonia (prochlorperazine). Type of assay: in vivo, rat (male, OFA strain). How it is done: 2. Inhibition of neuroleptic-induced catatonia
The blocking of dopaminergic receptors by neuroleptics in the extra-pyramidal system induces catatonia in the rat. Catatonia is differentiated from sedative properties by means of the test used hereabove for reserpine-induced catatonia. The same system of scoring was also employed in the present case.
An oral dose of the compound to be studied in aqueous solution was administered to batches of 10 male rats of the OFA strain weighing about 150 to 200 g. […] Three hours after the injection of this latter compound, catatonia was measured. An identical trial was also carried out with control animals which received prochlorperazine but none of the compounds under study.
The scoring system, used was that given hereabove in Table I.

Data on 1 compound can be found in patent US4048334A, “Active derivatives of methylamino in therapeutic compositions and methods of use” (priority 1974, dated 1977).

Take `CCCC(N)(CCC)CCC` [Compound 1]: the “Inhibition of the neuroleptic-induced catatonia” value is given as 70% (1 mg/kg) and 4 (100% inhibition of catatonia in comparison with the controls (namely a score of 0 per studied batch)) (5 mg/kg oral, 30 min before prochlorperazine 12.5 mg/kg i.p.). Besides, where the note is “versus amantadine”, the “activity compared with amantadine, neuroleptic-induced catatonia” value is on record as “twenty times more active than amantadine”.
